Experimental data taken from US20250275539A1, “APYRASE INHIBITORS” (Texas Crop Science, Inc., priority 2024, published 2025).
Like-named read-outs stand apart in the source and are kept apart here.

Key:
apyrase = assay: Apyrase inhibition assay (screen for apyrase inhibitors, phosphate release read at 630 nm); assay type: biochemical; conditions: inhibitor conc at 1 mM (10 μl added), 3 mM ATP, pH 6.5, room temperature 1 hr
Experimental: Apyrase inhibitors useful as enhancers of pesticidal activity are assessed using an in vitro assay. The method of Windsor, Bio Techniques 33:1024-1030 (November 2002) was used as follows
• 96 well plates were used for the assay: (Greiner bio-one: REF-655901-96 well, PS, F-bottom, Clear, Non-binding)
• Reaction Buffer: 60 mM Hepes; 3 mM MgCl2, 3 mM CaCl2) and 3 mM ATP (pH 6.5) • Development Buffer A: 2% aqueous ammonium molybdate • Development Buffer B: 11% ascorbic acid in 37.5% TCA in water • Stop buffer C: 2% trisodium citrate in 2% acetic acid solution in water
• Add 100 μl of reaction buffer to each well. • Add 10 μl of DMSO (control) or inhibitor/compound or compounds such as N1915 or orthovanadate to each well. (use inhibitor conc at 1 mM; orthovanadate at 2 mM and N1915 at 1 mM) • Add 10 μl of apyrase (concentration based on optimization—Dilute 1 U/μl enzyme to different concentrations such as 0.1 U, 0.05 U, 0.0025, 0.001 U, 0.0005 U—to find a good range) • Incubate plate at room temperature for 1 hr • Mix development buffer A and B in the ratio of 1:1.5 (just before use). • Add 50 μl of A: B mix in each well (incubate for 2 mins) • Add 50 μl of C in each well • Measure/Read Absorbance of plate @630 nm
Inhibitory data for the apyrase assay described above are provided for selected compounds in Table 3. D is inhibition of 0% to 10%, C is inhibition from 10% to 20%, B is inhibition from 20% to 30%, and A is inhibition above 30%. Blank entries signify compounds that were not tested.

[1] = tested on: Brown Rust (Puccinia recondita) on wheat; assay: Greenhouse crop test: control of Brown Rust on wheat in combination with commercial fungicides; assay type: in vivo; conditions: wheat JB Diego, inoculated 24 hours after treatment, evaluated at fourteen days; for Amistar (% control of the disease, compound + fungicide): with Amistar 0.04 L/ha; for Balaya (% control of the disease, compound + fungicide): with Balaya 0.25 L/ha; for Imtrex (% control of the disease, compound + fungicide): with Imtrex 0.45 L/ha; for Proline (% control of the disease, compound + fungicide): with Proline 0.15 L/ha
Experimental: In this method, exemplary compounds were evaluated for their ability to control Brown Rust (Puccinia recondita) on wheat in a controlled greenhouse environment in combination with one of four fungicides, Amistar, Imtrex, Proline or Balaya. In these studies, wheat plants (JB Diego) were used. Seeds were sown in 9 cm diameter pots to a depth of 1 to 2 cm using Petersfield potting compost (75% medium grade peat, 12% screened sterilized loam, 3% medium grade vermiculite, 10% grit (5 mm screened, lime free), 1.5 kg PG mix per m3, lime to pH5.5-6.0 and wetting agent (Vitax Ultrawet 200 ml per m3) and germinated/grown at 23 C under a 16 h day/8 h night light regime. Plants were treated two to three weeks after sowing when they were at the BBCH 11 growth stage ([…]). Wheat plants were inoculated with Puccinia triticina (Brown rust) 24 hours after treatment. A track sprayer was used to treat the plants with the mixture of commercial fungicide and test compound using a water volume of 200 L/ha. Four replicates were used for each combination of fungicide, pathogen and test compound. Each plant was evaluated at fourteen days (once the disease symptoms were fully expressed) for % control of the disease. Appropriate controls were used for all experiments, including an ‘inoculation check’ wherein plants were inoculated with their specific pathogen to assess disease levels. Also, each commercial fungicide was tested on its own as a part of each treatment, this being benchmark against which the experimental compounds were evaluated. […] That is, the present compounds, although not fungicidal by themselves, enhance the activity of fungicides, thus the enhancer compounds work synergistically in combination with fungicides to control disease. • Amistar (0.04 L/ha) • Imtrex (0.45 L/ha) • Proline (0.15 L/ha) • Balaya (0.25 L/ha)

[2] = tested on: Amaranthus retroflexus (pigweed); assay: Enhancement of herbicide activity: pre-emergence Amaranthus kill with metribuzin; assay type: in vivo; conditions: Amaranthus retroflexus
Experimental: Specifically, Amaranthus retroflexus (pigweed) was treated pre-emergence with metribuzin alone or in combination with an enhancer compound disclosed herein. Fifteen seeds of Amaranthus retroflexus were sown in soil in each pot and then sprayed with a mixture of metribuzin at the appropriate rate shown in Table 5 and the compound of this invention at 100 g/ha using a track sprayer at a water volume of 200 L/hectare. Small amounts of acetone were used to aid solubility. The pots were watered immediately after sowing and treatment and then allowed to stand in a glasshouse. Assessment of kill was made seven and fourteen days after treatment. The test included four replicates for each treatment and the control.

SMILES | Inhibition (apyrase) | further results
Cc1ccc(C)c(NS(=O)(=O)c2ccc(-c3ccccc3)cc2)c1 [Compound A-5, N-(2,5-dimethylphenyl)-[1,1′-biphenyl]-4-sulfonamide] | A (A is inhibition above 30%) | Amistar (% control of the disease, compound + fungicide) [1]: 89.2%; Balaya (% control of the disease, compound + fungicide) [1]: 13.0%; Imtrex (% control of the disease, compound + fungicide) [1]: 24.3%; Proline (% control of the disease, compound + fungicide) [1]: 15.1%
Cc1ccccc1NS(=O)(=O)c1ccc(-c2ccccc2)cc1 [Compound A-9, N-(o-tolyl)-[1,1′-biphenyl]-4-sulfonamide] | A (A is inhibition above 30%) | Amistar (% control of the disease, compound + fungicide) [1]: 65.5%; Balaya (% control of the disease, compound + fungicide) [1]: 54.9%; Imtrex (% control of the disease, compound + fungicide) [1]: −13.9%; Proline (% control of the disease, compound + fungicide) [1]: 12.4%
CN(c1ccccc1)S(=O)(=O)c1ccc(-c2ccccc2)cc1 [Compound A-10, N-methyl-N-phenyl-[1,1′-biphenyl]-4-sulfonamide] | A (A is inhibition above 30%) | Amistar (% control of the disease, compound + fungicide) [1]: 87.4%; Balaya (% control of the disease, compound + fungicide) [1]: 56.5%; Imtrex (% control of the disease, compound + fungicide) [1]: 15.0%; Proline (% control of the disease, compound + fungicide) [1]: 4.2%
CCCc1ccc(S(=O)(=O)Nc2cc(OC)c(OC)cc2C(=O)OC)cc1 [Compound A-96, methyl 4,5-dimethoxy-2-((4-propylphenyl)sulfonamido) benzoate] | C (C is inhibition from 10% to 20%) | 
CCCc1ccc(S(=O)(=O)Nc2ccc(S(=O)(=O)N(C)C)cc2)cc1 [Compound A-97, N,N-dimethyl-4-((4-propylphenyl)sulfonamido) benzenesulfonamide] | C (C is inhibition from 10% to 20%) | 
Cc1cccc(NS(=O)(=O)c2ccc(NC(=O)Nc3ccc([N+](=O)[O-])cc3)cc2)c1 [Compound A-98, 4-(3-(4-nitrophenyl)ureido)-N-(m-tolyl)benzenesulfonamide] | A (A is inhibition above 30%) | 
COc1ccccc1Oc1ccc(S(=O)(=O)Nc2cccc(C)c2)cc1 [Compound A-100, 4-(2-methoxyphenoxy)-N-(m-tolyl)benzenesulfonamide] | D (D is inhibition of 0% to 10%) | 
Cc1cccc(NS(=O)(=O)c2ccc(OCC(=O)O)cc2)c1 [Compound A-101, 2-(4-(N-(m-tolyl)sulfamoyl)phenoxy) acedtic acid] | B (B is inhibition from 20% to 30%) | 
CCCc1ccc(S(=O)(=O)Nc2ccc(Cl)c(C(=O)O)c2)cc1 [Compound A-102, 2-chloro-5-((4-propylphenyl)sulfonamido) benzoic acid] | D (D is inhibition of 0% to 10%) | 
CCCc1ccc(S(=O)(=O)Nc2ccc(C)c(S(N)(=O)=O)c2)cc1 [Compound A-104, N-(4-methyl-3-sulfamoylphenyl)-4-propylbenzenesulfonamide] | D (D is inhibition of 0% to 10%) | 
O=S(=O)(c1ccc(-c2ccccc2)cc1)N1CCCSCC1 [Compound A-106, 4-([1,1′-biphenyl]-4-ylsulfonyl)-1,4-thiazepane] | D (D is inhibition of 0% to 10%) | 
CCCc1ccc(S(=O)(=O)Nc2ccccc2-c2nncn2C)cc1 [Compound A-107, N-(2-(4-methyl-4H-1,2,4-triazol-3-yl)phenyl)-4-propylbenzenesulfonamide] | C (C is inhibition from 10% to 20%) | 
CCCc1ccc(S(=O)(=O)Nc2ccccc2-n2cnnn2)cc1 [Compound A-109, N-(2-(1H-tetrazol-1-yl)phenyl)-4-propylbenzenesulfonamide] | C (C is inhibition from 10% to 20%) | 
CCCc1ccc(S(=O)(=O)Nc2cccc(CN3CCOC3=O)c2)cc1 [Compound A-110, N-(3-((2-oxooxazolidin-3-yl)methyl)phenyl)-4-propylbenzenesulfonamide] | C (C is inhibition from 10% to 20%) | 
CCCc1ccc(S(=O)(=O)Nc2ccc(Cn3cccn3)cc2)cc1 [Compound A-111, N-(4-((1H-pyrazol-1-yl)methyl)phenyl)-4-propylbenzenesulfonamide] | D (D is inhibition of 0% to 10%) | 
CCCc1ccc(S(=O)(=O)Nc2ccccc2Cn2cncn2)cc1 [Compound A-113, N-(2-((1H-1,2,4-triazol-1-yl)methyl)phenyl)-4-propylbenzenesulfonamide] | D (D is inhibition of 0% to 10%) | 
O=S(=O)(c1ccc(-c2ccccc2)cc1)N1CCc2ccccc21 [Compound A-114] | D (D is inhibition of 0% to 10%) | 
CCCc1ccc(S(=O)(=O)Nc2ccc3c(c2)CCN3C(C)=O)cc1 [Compound A-115, N-(1-acetylindolin-5-yl)-4-propylbenzenesulfonamide] | A (A is inhibition above 30%) | 
CCN1CCCC(NS(=O)(=O)c2ccc(-c3ccccc3)cc2)C1 (centres unmarked) [Compound A-117, N-(1-ethylpiperidin-3-yl)-[1,1′-biphenyl]-4-sulfonamide] | D (D is inhibition of 0% to 10%) | 
CCCC(=O)Nc1cccc(NS(=O)(=O)c2ccc(CCC)cc2)c1C [Compound A-118, N-(2-methyl-3-((4-propylphenyl)sulfonamido)phenyl)butyramide] | D (D is inhibition of 0% to 10%) | 
CCCc1ccc(S(=O)(=O)Nc2ccc(Cl)c(NC(C)=O)c2)cc1 [Compound A-119, N-(2-chloro-5-((4-propylphenyl)sulfonamido)phenyl)acetamide] | D (D is inhibition of 0% to 10%) | 
CCCc1ccc(S(=O)(=O)Nc2ccc(-c3nc(C)cc(=O)[nH]3)cc2)cc1 [Compound A-120, N-(4-(4-methyl-6-oxo-1,6-dihydropyrimidin-2-yl)phenyl)-4-propylbenzenesulfonamide] | B (B is inhibition from 20% to 30%) | 
CCCc1ccc(S(=O)(=O)Nc2cc(Cl)ccc2-n2cncn2)cc1 [Compound A-122, N-(5-chloro-2-(1H-1,2,4-triazol-1-yl)phenyl)-4-propylbenzenesulfonamide] | C (C is inhibition from 10% to 20%) | 
CSc1nnc(C(C)(C)C)c(=O)n1N [None (metribuzin only), metribuzin, reference compound] |  | pest or weed control at 100 g/ha ([2]; 168 h, read-out: Pre-Emergence Amaranthus Kill Percentage, Assessed 7 DAT, Metribuzin rate 50 g/ha): 0%; pest or weed control at 100 g/ha ([2]; 168 h, read-out: Pre-Emergence Amaranthus Kill Percentage, Assessed 7 DAT, Metribuzin rate 100 g/ha): 15.2%; pest or weed control at 100 g/ha ([2]; 168 h, read-out: Pre-Emergence Amaranthus Kill Percentage, Assessed 7 DAT, Metribuzin rate 200 g/ha): 60.9%; pest or weed control at 100 g/ha ([2]; 336 h, read-out: Pre-Emergence Amaranthus Kill Percentage, Assessed 14 DAT, Metribuzin rate 50 g/ha): 7.7%; pest or weed control at 100 g/ha ([2]; 336 h, read-out: Pre-Emergence Amaranthus Kill Percentage, Assessed 14 DAT, Metribuzin rate 100 g/ha): 38.3%; pest or weed control at 100 g/ha ([2]; 336 h, read-out: Pre-Emergence Amaranthus Kill Percentage, Assessed 14 DAT, Metribuzin rate 200 g/ha): 74%
